Values after ≈ are worked out from the molar mass of the structure shown. Like-named read-outs stand apart in the source and are kept apart here.
Experiments:
Staphylococcus aureus [1] = assay: microbe, parasite or virus in culture; format: cell-based; conditions: read-out: Minimum inhibitory concentration (MIC)
Salmonella typhi [2] = assay: Minimum inhibitory concentration (dilutions, plot of IZD^2 against log concentration); format: cell-based; conditions: Salmonella enterica, read-out: Minimum inhibitory concentration (MIC)
Shigella spp. [3] = assay: microbe, parasite or virus in culture; format: cell-based; conditions: read-out: Minimum inhibitory concentration (MIC)
Pseudomonas aeruginosa [4] = assay: microbe, parasite or virus in culture; format: cell-based; conditions: read-out: Minimum inhibitory concentration (MIC)
Shigella spp. [5] = assay: microbe, parasite or virus in culture; format: cell-based; conditions: 24 h, read-out: Inhibition zone diameter
Escherichia coli [6] = assay: microbe, parasite or virus in culture; format: cell-based; conditions: read-out: Inhibition zone diameter
Bacillus subtilis [7] = assay: microbe, parasite or virus in culture; format: cell-based; conditions: read-out: Minimum inhibitory concentration (MIC)
Aspergillus niger [8] = assay: Agar well diffusion, inhibition zone diameter; format: cell-based; conditions: 48 h, read-out: Inhibition zone diameter
[9] = Relative thermal stability (spectrophotometric absorbance); format: physicochemical; conditions: 0.1 mg/mL solution, 24 hours, at λ-max
Description: (§1) The relative thermal and acid stabilities of the complexes were determined spectrometrically. Dilute solutions (0.1 mg/mL) were prepared, their absorption spectra were generated, and the λ-max in each case was noted. The solution of each complex was divided into seven equal portions and the temperature regulated to 20°C, 30°C, 40°C, 50°C, 60°C, 70°C, and 80°C, respectively, for a period of 24 hours. The absorbance in each case was then measured. Similarly, the same concentration of these solutions was prepared at the pH range of 1–6 and the absorbance was measured. These changes in absorbance with temperature and pH, assuming that Beer-Lambert's law is obeyed, are a measure of the stability of the complexes.

Escherichia coli [10] = assay: microbe, parasite or virus in culture; format: cell-based; conditions: read-out: Minimum inhibitory concentration (MIC)
Aspergillus niger [11] = assay: microbe, parasite or virus in culture; format: cell-based; conditions: read-out: Minimum inhibitory concentration (MIC)
Bacillus subtilis [12] = assay: microbe, parasite or virus in culture; format: cell-based; conditions: read-out: Inhibition zone diameter
Pseudomonas aeruginosa [13] = assay: microbe, parasite or virus in culture; format: cell-based; conditions: read-out: Inhibition zone diameter
[14] = Relative acid stability (spectrophotometric absorbance); format: physicochemical; conditions: 0.1 mg/mL solution, at λ-max
Description: as §1
The changes in absorbance with pH are a measure of the acid stability of the compounds.

Salmonella typhi [15] = assay: Agar well diffusion, inhibition zone diameter; format: cell-based; conditions: Salmonella enterica, 24 h, read-out: Inhibition zone diameter
[16] = Relative acid stability (spectrophotometric absorbance); format: physicochemical; conditions: 0.1 mg/mL solution, at λ-max; remark: listed apart in the source
Staphylococcus aureus [17] = assay: microbe, parasite or virus in culture; format: cell-based; conditions: read-out: Inhibition zone diameter
[18] = Description: Saturated solution (10 mL) of each of the complexes and ligands at ambient temperature (28°C) was evaporated to dryness in an evaporating dish. The mass of the solid left in each case was determined. The solubilities were calculated using the relation: (1) S=mass/volume×1000. The solubilities of the complexes were compared with those of the ligands.
The solubilities were determined at 28°C.

SMILES | MIC (Salmonella typhi [2]) | MIC (Shigella spp. [3]) | zone of inhibition at 5000 µg/mL (Shigella spp. [5]) | zone of inhibition at 5000 µg/mL (Aspergillus niger [8]) | Absorbance at 20°C [9] | Absorbance at 30°C [9] | Absorbance at 40°C [9] | Absorbance at 50°C [9] | Absorbance at 60°C [9] | Absorbance at 70°C [9] | Absorbance at 80°C [9] | Absorbance at pH 1 [14] | Absorbance at pH 2 [14] | Absorbance at pH 3 [14] | Absorbance at pH 4 [14] | Absorbance at pH 5 [14] | Absorbance at pH 6 [14] | zone of inhibition at 5000 µg/mL (Salmonella typhi [15]) | Absorbance at pH 7 [16] | also measured
Cc1onc(-c2ccccc2Cl)c1C(=O)N[C@@H]1C(=O)N2[C@@H]1SC(C)(C)[C@@H]2C(=O)O [Cloxacillin] | 14.5 µg/mL (≈ 33.3 µM) | 12.5 µg/mL (≈ 28.7 µM) | 30 mm | 30 mm | 0.721 | 0.727 | 0.683 | 0.455 | 0.337 | 0.190 | 0.184 | 0.437 | 0.449 | 0.550 | 0.554 | 0.696 | 0.704 | 27 mm | 0.722 | MIC (Staphylococcus aureus [1]; S. aureus clinical isolate): 12.5 µg/mL (≈ 28.7 µM); MIC (Pseudomonas aeruginosa [4]; P. aeruginosa clinical isolate): 22 µg/mL (≈ 50.5 µM); zone of inhibition at 5000 µg/mL (Escherichia coli [6]; E. coli clinical isolate, 5 mg/mL, 32°C 24 hours): 28 mm; MIC (Bacillus subtilis [7]; B. subtilis clinical isolate): 12.5 µg/mL (≈ 28.7 µM); MIC (Escherichia coli [10]; E. coli clinical isolate): 14.5 µg/mL (≈ 33.3 µM); MIC (Aspergillus niger [11]; A. niger clinical isolate): 14.5 µg/mL (≈ 33.3 µM); zone of inhibition at 5000 µg/mL (Bacillus subtilis [12]; B. subtilis clinical isolate, 5 mg/mL, 32°C 24 hours): 32 mm; zone of inhibition at 5000 µg/mL (Pseudomonas aeruginosa [13]; P. aeruginosa clinical isolate, 5 mg/mL, 32°C 24 hours): 20 mm; zone of inhibition at 5000 µg/mL (Staphylococcus aureus [17]; S. aureus clinical isolate, 5 mg/mL, 32°C 24 hours): 31.5 mm; Solubility [18]: Negligible
CC1(C)S[C@@H]2[C@H](NC(=O)[C@H](N)c3ccc(O)cc3)C(=O)N2[C@H]1C(=O)O [Amoxicillin] | 11 µg/mL (≈ 30.1 µM) | 11 µg/mL (≈ 30.1 µM) | 30 mm | 35 mm | 0.661 | 0.664 | 0.643 | 0.428 | 0.369 | 0.312 | 0.126 | 0.387 | 0.404 | 0.499 | 0.511 | 0.603 | 0.620 | 35.5 mm | 0.664 | MIC (Staphylococcus aureus [1]): 12.5 µg/mL (≈ 34.2 µM); MIC (Pseudomonas aeruginosa [4]): 14 µg/mL (≈ 38.3 µM); zone of inhibition at 5000 µg/mL (Escherichia coli [6]; 24 h): 33 mm; MIC (Bacillus subtilis [7]): 12.5 µg/mL (≈ 34.2 µM); MIC (Escherichia coli [10]): 12.5 µg/mL (≈ 34.2 µM); MIC (Aspergillus niger [11]): 15 µg/mL (≈ 41 µM); zone of inhibition at 5000 µg/mL (Bacillus subtilis [12]; 24 h): 30 mm; zone of inhibition at 5000 µg/mL (Pseudomonas aeruginosa [13]; 24 h): 28 mm; zone of inhibition at 5000 µg/mL (Staphylococcus aureus [17]; 24 h): 30 mm
